Results from patent US20260285850A1, “SUBSTITUTED OXAZOLIDINONES AND IMIDAZOLINONES AS HERBICIDES” (FMC CORPORATION, priority 2023, published 2026).

Columns and labels:
Type in all cases: in vivo
[1] = system: galium (catchweed bedstraw, Galium aparine); assay: Test A postemergence application, visual injury rating 0-100
Outline: (§1)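 Plants in a loam and sand soil blend were treated with each test chemical, in a non-phytotoxic solvent system including surfactant, either sprayed on seeded soil before emergence or applied after emergence at the one- to two-leaf stage. Ten days later in the greenhouse, plants were compared with untreated controls and visually rated from 0 (no effect) to 100 (complete control).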

[2] = system: ragweed (common ragweed, Ambrosia artemisiifolia); assay: as above
Outline: as §1

[3] = system: oat, wild (wild oat, Avena fatua); assay: as above
Outline: as §1

[4] = system: green foxtail (Setaria viridis); assay: as above
Outline: as §1

soybean (Glycine max) [5] = assay: as above
Outline: as §1

corn (Zea mays) [6] = assay: as above
Outline: as §1

[7] = system: ryegrass, Italian (italian ryegrass, Lolium multiflorum); assay: as above
Outline: as §1

[8] = system: blackgrass (Alopecurus myosuroides); assay: as above
Outline: as §1

[9] = system: palmer (palmer amaranth, palmer pigweed, Amaranthus palmeri); assay: as above
Outline: as §1

[10] = system: wheat (Triticum aestivum); assay: as above
Outline: as §1

kochia (Bassia scoparia) [11] = assay: as above
Outline: as §1

[12] = system: barnyardgrass (Echinochloa crus-galli); assay: as above
Outline: as §1

[13] = system: horseweed (Erigeron canadensis); assay: as above
Outline: as §1

[14] = system: sedge, umbrella (small-flower umbrella sedge, Cyperus difformis); assay: Test B flooded paddy test, visual plant response rating 0-100; details: 250 g ai/ha, Flood, applied to paddy water, evaluated after 13 days
Outline: (§2)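 Visual evaluation after 13 days. Water-applied treatment, 3 cm flood depth held constant, plants at 2-leaf stage at treatment.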

[15] = system: barnyardgrass (Echinochloa crusgalli); assay: as above; details: 250 g ai/ha, Flood, applied to paddy water, evaluated after 13 days
Outline: as §2

rice (Oryza sativa) = assay: as above; details: 250 g ai/ha, Flood, applied to paddy water, evaluated after 13 days
Outline: as §2

[16] = system: ducksalad (Heteranthera limosa); assay: as above; details: 250 g ai/ha, Flood, applied to paddy water, evaluated after 13 days
Outline: as §2

[17] = system: ragweed (common ragweed, Ambrosia artemisiifolia); assay: Test A preemergence soil spray, visual injury rating 0-100; details: 10 days
Outline: as §1

[18] = system: oat, wild (wild oat, Avena fatua); assay: as above; details: 10 days
Outline: as §1

[19] = system: green foxtail (Setaria viridis); assay: as above; details: 10 days
Outline: as §1

soybean (Glycine max) [20] = assay: as above; details: 10 days
Outline: as §1

corn (Zea mays) [21] = assay: as above; details: 10 days
Outline: as §1

[22] = system: ryegrass, Italian (italian ryegrass, Lolium multiflorum); assay: as above; details: 10 days
Outline: as §1

[23] = system: blackgrass (Alopecurus myosuroides); assay: as above; details: 10 days
Outline: as §1

[24] = system: palmer (palmer amaranth, palmer pigweed, Amaranthus palmeri); assay: as above; details: 10 days
Outline: as §1

[25] = system: wheat (Triticum aestivum); assay: as above; details: 10 days
Outline: as §1

kochia (Bassia scoparia) [26] = assay: as above; details: 16 g ai/ha, 0 to 100 scale, 10 days
Outline: as §1

[27] = system: barnyardgrass (Echinochloa crus-galli); assay: as above; details: 10 days
Outline: as §1

[28] = 62 g ai/ha, postemergence, 10 days, 0 = no effect, 100 = complete control
[29] = Postemergence, 16 g ai/ha, greenhouse 10 days, 0 no effect, 100 complete control
[30] = 62 g ai/ha, 0 = no effect, 100 = complete control

With CCOC(=O)C1C=CC(NC(=O)C2(C)CN(c3cccc(OC(F)(F)F)c3)C(=O)O2)C1 (stereo not drawn) [Compound 102] the “Galium plant response rating (0-100)” value [1, 28] was 70, the “Galium plant response rating (0 to 100 scale)” value [1, 29] was 50 and the “Ragweed plant response rating (0-100)” value [2, 28] was 20. For the same compound, the “Ragweed plant response rating (0 to 100 scale)” value [2, 29] was 0, the “Oat, Wild plant response rating (0-100)” value [3, 28] was 60 and the “Oat, Wild plant response rating (0 to 100 scale)” value [3, 29] was 20. For the same compound, the “Foxtail, Green plant response rating (0-100)” value [4, 28] was 20, the “Foxtail, Green plant response rating (0 to 100 scale)” value [4, 29] was 10 and the “Soybean plant response rating (0-100)” value (soybean (Glycine max) [5]; [28]) was 50. The “Soybean plant response rating (0 to 100 scale)” value (soybean (Glycine max) [5]; [29]) was 30, the “Corn plant response rating (0-100)” value (corn (Zea mays) [6]; [28]) was 60 and the “Corn plant response rating (0 to 100 scale)” value (corn (Zea mays) [6]; [29]) was 0. For the same compound, the “Ryegrass, Italian plant response rating (0-100)” value [7, 28] was 70, the “Ryegrass, Italian plant response rating (0 to 100 scale)” value [7, 29] was 20 and the “Blackgrass plant response rating (0-100)” value [8, 28] was 90. The “Blackgrass plant response rating (0 to 100 scale)” value [8, 29] was 50, the “Pigweed, Palmer plant response rating (0-100)” value [9, 28] was 10 and the “Pigweed, Palmer plant response rating (0 to 100 scale)” value [9, 29] was 0. For the same compound, the “Wheat plant response rating (0-100)” value [10, 28] was 20, the “Wheat plant response rating (0 to 100 scale)” value [10, 29] was 20 and the “Kochia plant response rating (0-100)” value (kochia (Bassia scoparia) [11]; [28]) was 70. For the same compound, the “Kochia plant response rating (0 to 100 scale)” value (kochia (Bassia scoparia) [11]; [29]) was 0, the “Barnyardgrass plant response rating (0-100)” value [12, 28] was 80 and the “Barnyardgrass plant response rating (0 to 100 scale)” value [12, 29] was 30. For the same compound, the “Horseweed plant response rating (0-100)” value [13, 28] was 10, the “Horseweed plant response rating (0 to 100 scale)” value [13, 29] was 20 and the “Plant response rating, Sedge, Umbrella (0 to 100 scale, 0 is no effect and 100 is complete control)” value [14] was 0. For the same compound, the “Plant response rating, Barnyardgrass (0 to 100 scale, 0 is no effect and 100 is complete control)” value [15] was 0, the “Plant response rating, Rice (0 to 100 scale, 0 is no effect and 100 is complete control)” value (rice (Oryza sativa)) was 0 and the “Plant response rating, Ducksalad (0 to 100 scale, 0 is no effect and 100 is complete control)” value [16] was 0. For the same compound, the “Ragweed plant response rating” value ([17]; 16 g ai/ha, 0 to 100 scale) was 0, the “Ragweed plant response rating (0-100)” value [17, 30] was 0 and the “Oat, Wild plant response rating” value ([18]; 16 g ai/ha, 0 to 100 scale) was 0. For the same compound, the “Oat, Wild plant response rating (0-100)” value [18, 30] was 30, the “Foxtail, Green plant response rating” value ([19]; 16 g ai/ha, 0 to 100 scale) was 0 and the “Foxtail, Green plant response rating (0-100)” value [19, 30] was 10. For the same compound, the “Soybean plant response rating” value (soybean (Glycine max) [20]; 16 g ai/ha, 0 to 100 scale) was 0, the “Soybean plant response rating (0-100)” value (soybean (Glycine max) [20]; [30]) was 0 and the “Corn plant response rating” value (corn (Zea mays) [21]; 16 g ai/ha, 0 to 100 scale) was 0. The “Corn plant response rating (0-100)” value (corn (Zea mays) [21]; [30]) was 10, the “Ryegrass, Italian plant response rating” value ([22]; 16 g ai/ha, 0 to 100 scale) was 0 and the “Ryegrass, Italian plant response rating (0-100)” value [22, 30] was 70. The “Blackgrass plant response rating” value ([23]; 16 g ai/ha, 0 to 100 scale) was 0, the “Blackgrass plant response rating (0-100)” value [23, 30] was 30 and the “Pigweed, Palmer plant response rating” value ([24]; 16 g ai/ha, 0 to 100 scale) was 0. The “Pigweed, Palmer plant response rating (0-100)” value [24, 30] was 0, the “Wheat plant response rating” value ([25]; 16 g ai/ha, 0 to 100 scale) was 0 and the “Wheat plant response rating (0-100)” value [25, 30] was 20. For the same compound, the “Kochia plant response rating” value (kochia (Bassia scoparia) [26]) was 0, the “Barnyardgrass plant response rating” value ([27]; 16 g ai/ha, 0 to 100 scale) was 0 and the “Barnyardgrass plant response rating (0-100)” value [27, 30] was 0.
